Assay results from patent US9828350B2, “5,6-dihydro-2H-[1,4]oxazin-3-yl-amine derivatives useful as inhibitors of beta-secretase (BACE)” (Janssen Pharmaceutica NV, priority 2010, dated 2017).
Counter-ions that a name gives are not always drawn.

Legend:
[1] = target: recombinant BACE1 protein (Homo sapiens, UniProt P56817); test: Biochemical FRET based assay; conditions: recombinant BACE1 1 μg/ml, 120 minutes at room temperature, pH 5.0; for IC50: read-out: Biochemical FRET based assay pIC50 (converted)
Chain of recombinant BACE1 protein (P56817 46-501): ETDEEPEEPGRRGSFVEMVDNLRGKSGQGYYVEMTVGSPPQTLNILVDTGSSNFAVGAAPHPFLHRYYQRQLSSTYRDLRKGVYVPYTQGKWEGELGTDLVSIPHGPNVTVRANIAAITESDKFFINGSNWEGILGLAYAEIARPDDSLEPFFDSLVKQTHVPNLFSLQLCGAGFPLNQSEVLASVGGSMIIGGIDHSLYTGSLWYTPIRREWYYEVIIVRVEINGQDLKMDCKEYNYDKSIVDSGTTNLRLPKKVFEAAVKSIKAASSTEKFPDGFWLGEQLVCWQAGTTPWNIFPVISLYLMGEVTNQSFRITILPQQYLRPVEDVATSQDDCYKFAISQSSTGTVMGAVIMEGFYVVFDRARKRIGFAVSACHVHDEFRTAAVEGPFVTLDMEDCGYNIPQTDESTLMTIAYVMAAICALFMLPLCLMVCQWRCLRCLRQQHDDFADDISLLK
How it was run: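 Proteolysis was read as the rise in donor fluorescence (320 nm excitation, 405 nm emission) from T0 to T120, expressed in RFU. The reaction ran 120 minutes at room temperature at pH 5.0 in citrate buffer with 4% DMSO, using […] quenched Swedish APP peptide and 1 μg/ml BACE1.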

Abeta total = test: Cellular αLisa assay in SKNBE2 cells, Abeta total; type: cell-based, human; conditions: incubated for 18 hours; for IC50: Homo sapiens, SKNBE2, 18 h, read-out: Cellular αLisa assay in SKNBE2 cells Abetatotal pIC50 (converted)
How it was run: (§1)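 Secreted Abeta levels were measured by sandwich αLisa, pairing biotin-AbN/25 donor beads with Ab4G8 acceptor beads for total Abeta or cAb42/26 for Abeta 1-42, read at 615 nm after 650 nm excitation following 1 hour. Cells were SKNBE2 expressing wild-type hAPP695, exposed to compound for 18 hours.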

Abeta 1-42 = test: Cellular αLisa assay in SKNBE2 cells, Abeta 1-42; type: cell-based, human; conditions: incubated for 18 hours; for IC50: Homo sapiens, SKNBE2, 18 h, read-out: Cellular αLisa assay in SKNBE2 cells Abeta 42 pIC50 (converted)
How it was run: as §1

Aβ42 = test: Demonstration of in vivo efficacy, brain Aβ42 lowering (ELISA); conditions: mouse brain
Description: (§2) To determine whether acute administration of an Aβ42 peptide lowering agent would reduce Aβ peptide levels in vivo, non-transgenic rodents, e.g. mice or rats were used. Animals treated with the Aβ peptide lowering agent were examined and compared to those untreated or treated with vehicle and brain levels of soluble Aβ42 and total Aβ were quantitated by standard techniques, for example, using ELISA.
(§3) A typical protocol for measuring Aβ42 lowering in vivo is shown but it is only one of many variations that could be used to optimize the levels of detectable Aβ. For example, Aβ peptide lowering compounds were formulated in 20% hydroxypropyl 3 cyclodextrin. The Aβ peptide lowering agents were administered as a single oral dose (p.o.) or a single subcutaneous dose (s.c.) to overnight fasted animals. After a certain time, usually 2 or 4 h (as indicated in Table 19), the animals were sacrificed and Aβ42 levels were analysed.
(§4) Blood was collected by decapitation and exsanguinations in EDTA-treated collection tubes. Blood was centrifuged at 1900 g for 10 minutes (min) at 4° C. and the plasma recovered and flash frozen for later analysis. The brain was removed from the cranium and hindbrain. The cerebellum was removed and the left and right hemisphere were separated. The left hemisphere was stored at −18° C. for quantitative analysis of test compound levels. The right hemisphere was rinsed with phosphate-buffered saline (PBS) buffer and immediately frozen on dry ice and stored at −80° C. until homogenization for biochemical assays.
(§5) Mouse brains from non-transgenic animals were resuspended in 8 volumes of 0.4% DEA (diethylamine)/50 mM NaCl containing protease inhibitors (Roche-11873580001 or 04693159001) per gram of tissue, e.g. for 0.158 g brain, add 1.264 ml of 0.4% DEA. All samples were homogenized in the FastPrep-24 system (MP Biomedicals) using lysing matrix D (MPBio #6913-100) at 6 m/s for 20 seconds. Homogenates were centrifuged at 221.300×g for 50 min. The resulting high speed supernatants were then transferred to fresh eppendorf tubes. Nine parts of supernatant were neutralized with 1 part 0.5 M Tris-HCl pH 6.8 and used to quantify Aβtotal and Aβ42.
(§6) To quantify the amount of Aβtotal and Aβ42 in the soluble fraction of the brain homogenates, Enzyme-Linked-Immunosorbent-Assays were used. Briefly, the standards (a dilution of synthetic Aβ1-40 and Aβ1-42, Bachem) were prepared in 1.5 ml Eppendorf tube in Ultraculture, with final concentrations ranging from 10000 to 0.3 pg/ml. The samples and standards were co-incubated with HRPO-labelled N-terminal antibody for Aβ42 detection and with the biotinylated mid-domain antibody 4G8 for Aβtotal detection. […] The plate was allowed to incubate overnight at 4° C. in order to allow formation of the antibody-amyloid complex. Following this incubation and subsequent wash steps the ELISA for Aβ42 quantification was finished by addition of Quanta Blu fluorogenic peroxidase substrate according to the manufacturer's instructions (Pierce Corp., Rockford, Ill.). A reading was performed after 10 to 15 min (excitation 320 nm/emission 420 nm).

Aβtotal = test: Demonstration of in vivo efficacy, brain Aβtotal lowering (ELISA); conditions: mouse brain
Description: as §2, §3, §4, §5, §6
For Aβtotal detection, a Streptavidine-Peroxidase-Conjugate was added, followed 60 min later by an additional wash step and addition of Quanta Blu fluorogenic peroxidase substrate according to the manufacturer's instructions (Pierce Corp., Rockford, Ill.). A reading was performed after 10 to 15 min (excitation 320 nm/emission 420 nm).

Row | SMILES | Cellular αLisa assay in SKNBE2 cells Abetatotal pIC50 (Abeta total) | Cellular αLisa assay in SKNBE2 cells Abeta 42 pIC50 (Abeta 1-42) | IC50 [1] [nM] | IC50 (Abeta total) [nM] | IC50 (Abeta 1-42) [nM] | Aβ42 (% Ctrl)_Mean (Aβ42; 30 mpk, s.c., 2 h) [% Ctrl] | Aβtotal (% Ctrl)_Mean (Aβtotal; 30 mpk, s.c., 2 h) [% Ctrl] | melting point [°C] | Aβ42 (% Ctrl)_Mean (Aβ42; 30 mpk, s.c., 4 h) [% Ctrl] | Aβtotal (% Ctrl)_Mean (Aβtotal; 30 mpk, s.c., 4 h) [% Ctrl] | further results
1 | CC1(c2cccc(NC(=O)c3ccc(C#N)cn3)c2)COCC(N)=N1 (single isomer, unassigned) [Compound 50] | 7.88 | 7.91 |  |  |  |  |  |  |  |  | Biochemical FRET based assay pIC50 [1]: 6.93; Aβ42 (% Ctrl)_Mean (Aβ42; 5 mpk, s.c., 4 h): 133 % Ctrl; Aβtotal (% Ctrl)_Mean (Aβtotal; 5 mpk, s.c., 4 h): 95 % Ctrl
2 | N#Cc1cnc(C(=O)Nc2ccc(F)c([C@@]3(C4CC4)N=C(N)CO[C@@H]3F)c2)c(Cl)c1 [Compound 218] |  |  | 126 | 832 | 851 | 99 | 90 |  |  |  | 
3 | C[C@]1(c2cc(NC(=O)c3ncc(C#N)cc3Cl)ccc2F)N=C(N)CO[C@@H]1F [Compound 209] |  |  | 39.8 | 13.8 | 15.5 |  |  |  |  |  | Aβ42 (% Ctrl)_Mean (Aβ42; 10 mpk, p.o., 4 h): 6 % Ctrl; Aβtotal (% Ctrl)_Mean (Aβtotal; 10 mpk, p.o., 4 h): 14 % Ctrl
4 | C[C@@]1(c2cccc(-c3cc(Cl)cc(Cl)c3)c2)COCC(N)=N1 [Compound 52] | 6.66 | 6.68 |  |  |  | 68 | 114 |  |  |  | Biochemical FRET based assay pIC50 [1]: 6.06
5 | C[C@]1(c2cc(NC(=O)c3ncc(Cl)cc3Cl)ccc2F)N=C(N)CO[C@H]1C(F)(F)F [Compound 167] |  |  | 34.7 | 7.59 | 7.59 |  |  | 214.23 |  |  | Aβ42 (% Ctrl)_Mean (Aβ42; 30 mpk, p.o., 2 h): 95 % Ctrl; Aβtotal (% Ctrl)_Mean (Aβtotal; 30 mpk, p.o., 2 h): 78 % Ctrl
6 | CC1(c2cccc(-c3cncnc3)c2)N=C(N)COC1F (single isomer, unassigned) [Compound 96] | 6.43 | 6.46 | 11200 |  |  |  |  |  | 116 | 104 | 
7 | CC1(c2cccc(NC(=O)c3ccc(Cl)cn3)c2)COC(F)(C(F)(F)F)C(N)=N1 (racemic) [Compound 9, rac-N-{3-[5-amino-6-fluoro-3-methyl-6-(trifluoromethyl)-3,6-dihydro-2H-1,4-oxazin-3-yl]phenyl}-5-chloropyridine-2-carboxamide] |  |  | 3470 | 8510 | > 10000 |  |  | 193.3 | 87 | 101 | 
8 | COc1cncc(-c2cccc(C3(C)COCC(N)=N3)c2)c1 (single isomer, unassigned) [Compound 8] |  |  | 2040 | 178 | 214 |  |  | 79.5 | 92 | 98 | 
9 | CC1(c2cc(-c3cncnc3)c(F)cc2F)COCC(N)=N1 (racemic) [Compound 59] | 6.417 | 6.44 |  |  |  | 114 | 95 |  |  |  | Biochemical FRET based assay pIC50 [1]: 5.36
10 | N#Cc1ccc(C(=O)Nc2cccc([C@@]3(C4CC4)N=C(N)CO[C@@]3(F)C(F)(F)F)c2)nc1 [Compound 199, (2S,3R)—N-{3-[5-amino-3-cyclopropyl-2-fluoro-2-(trifluoromethyl)-3,6-dihydro-2H-1,4-oxazin-3-yl]phenyl}-5-cyanopyridine-2-carboxamide] |  |  | 14.8 | 17 | 16.6 | 64 | 45 | 196.12 |  |  | 
11 | CC1(c2cccc(-c3cncnc3)c2)N=C(N)COC1(F)C(F)(F)F (single isomer, unassigned) [Compound 117] | 6.55 | 6.59 | 437 |  |  | 95 | 86 |  |  |  | 
12 | CC1(c2cc(NC(=O)c3ncc(Cl)cc3Cl)ccc2F)N=C(N)COC1F (single isomer, unassigned) [Compound 126] | 8.09 | 8.06 | 36.3 |  |  |  |  | 94.6 | 27 | 32 | Aβ42 (% Ctrl)_Mean (Aβ42; 30 mpk, p.o., 4 h): 26 % Ctrl; Aβtotal (% Ctrl)_Mean (Aβtotal; 30 mpk, p.o., 4 h): 31 % Ctrl
13 | NC1=N[C@@](c2cc(NC(=O)c3ncc(Cl)cc3F)ccc2F)(C2CC2)[C@@H](F)OC1 [Compound 219] |  |  | 93.3 | 282 | 309 | 95 | 86 |  |  |  | 
14 | CC1(c2cccc(-c3ccccc3)c2)COCC(N)=N1 (racemic) [Compound 1, rac-5-biphenyl-3-yl-5-methyl-5,6-dihydro-2H-1,4-oxazin-3-amine trifluoroacetate salt] |  |  | 24000 | 1020 | 1480 |  |  |  | 102 | 97 | 
15 | CC1(c2cccc(NC(=O)c3ccc(C(F)(F)F)cn3)c2)COCC(N)=N1 (racemic) [Compound 14] | 7.56 | 7.49 |  |  |  |  |  |  | 107 | 116 | Biochemical FRET based assay pIC50 [1]: 6.28
